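Where inhibition never reached the appropriate level, the endpoint shown equals the highest concentration tested. Otherwise, values were interpolated linearly from a five-concentration, 48-hour dose response in 96-well plates. GI50 = concentration required for 50% inhibition of growth.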 Activity calls are given as the source filed them. Cut-off read from the data, not from the text of the source: active = GI50 up to about 1.1 µM and inactive = higher.
Legend:
Assay in all cases: NCI-60 cell line screen, 48 h
[1] = system: EKVX
[2] = system: A549
[3] = system: OVCAR-4
[4] = system: MDA-MB-231
[5] = system: 786-0
[6] = system: SF-268
[7] = system: SK-MEL-28
[8] = system: ACHN
[9] = system: SK-MEL-5
[10] = system: SF-539
[11] = system: UO-31
[12] = system: BT-549
[13] = system: A498
[14] = system: TK-10
[15] = system: T47D
[16] = system: HL-60
[17] = system: MDA-N
[18] = system: SW-620
[19] = system: COLO 205
[20] = system: LOX IMVI
[21] = system: UACC-257
[22] = system: K562
[23] = system: NCI-H23
[24] = system: DU-145
[25] = system: U-251
[26] = system: SK-OV-3
[27] = system: Malme-3M
[28] = system: OVCAR-3
[29] = system: CAKI-1
[30] = system: SK-MEL-2
[31] = system: OVCAR-5
[32] = system: OVCAR-8
[33] = system: NCI-H522
[34] = system: IGROV-1
[35] = system: HCT-116
[36] = system: M14
[37] = system: SN12C
[38] = system: Hs-578T
[39] = system: HOP-92
[40] = system: HCC 2998
[41] = system: NCI/ADR-RES
[42] = system: NCI-H226
[43] = system: RPMI-8226
[44] = system: SNB-19
[45] = system: HT-29
[46] = system: MDA-MB-435
[47] = system: CCRF-CEM
[48] = system: SF-295
[49] = system: UACC-62
[50] = system: KM12
[51] = system: MOLT-4
[52] = system: NCI-H460
[53] = system: HCT-15
[54] = system: SNB-75
[55] = system: PC-3
[56] = system: MCF7
[57] = system: HOP-62
[58] = system: RXF 393

COc1ccc(CC2c3cc4c(cc3CCN2C)OCO4)c(C=O)c1OC (configuration not stated)
GI50 [1]: > 100 µM (inactive)
GI50 [2]: > 100 µM (inactive)
GI50 [3]: > 100 µM (inactive)
GI50 [4]: > 100 µM (inactive)
GI50 [5]: > 100 µM (inactive)
GI50 [6]: > 100 µM (inactive)
GI50 [7]: > 100 µM (inactive)
GI50 [8]: > 100 µM (inactive)
GI50 [9]: > 100 µM (inactive)
GI50 [10]: > 100 µM (inactive)
GI50 [11]: > 100 µM (inactive)
GI50 [12]: > 100 µM (inactive)
GI50 [13]: > 100 µM (inactive)
GI50 [14]: > 100 µM (inactive)
GI50 [15]: > 100 µM (inactive)
GI50 [16]: > 100 µM (inactive)
GI50 [17]: > 100 µM (inactive)
GI50 [18]: > 100 µM (inactive)
GI50 [19]: > 100 µM (inactive)
GI50 [20]: > 100 µM (inactive)
GI50 [21]: > 100 µM (inactive)
GI50 [22]: > 100 µM (inactive)
GI50 [23]: > 100 µM (inactive)
GI50 [24]: > 100 µM (inactive)
GI50 [25]: > 100 µM (inactive)
GI50 [26]: > 100 µM (inactive)
GI50 [27]: > 100 µM (inactive)
GI50 [28]: > 100 µM (inactive)
GI50 [29]: 60.5 µM (inactive)
GI50 [30]: > 100 µM (inactive)
GI50 [31]: > 100 µM (inactive)
GI50 [32]: > 100 µM (inactive)
GI50 [33]: > 100 µM (inactive)
GI50 [34]: > 100 µM (inactive)
GI50 [35]: > 100 µM (inactive)
GI50 [36]: > 100 µM (inactive)
GI50 [37]: > 100 µM (inactive)
GI50 [38]: > 100 µM (inactive)
GI50 [39]: > 100 µM (inactive)
GI50 [40]: > 100 µM (inactive)
GI50 [41]: > 100 µM (inactive)
GI50 [42]: 57.9 µM (inactive)
GI50 [43]: > 100 µM (inactive)
GI50 [44]: > 100 µM (inactive)
GI50 [45]: > 100 µM (inactive)
GI50 [46]: > 100 µM (inactive)
GI50 [47]: > 100 µM (inactive)
GI50 [48]: > 100 µM (inactive)
GI50 [49]: > 100 µM (inactive)
GI50 [50]: > 100 µM (inactive)
GI50 [51]: > 100 µM (inactive)
GI50 [52]: > 100 µM (inactive)
GI50 [53]: > 100 µM
GI50 [54]: 40.8 µM (inactive)
GI50 [55]: > 100 µM (inactive)
GI50 [56]: > 100 µM (inactive)

Cc1ccc(C(=O)Nc2ccc(CP(=O)(O)O)cc2CP(=O)(O)O)cc1NC(=O)c1cccc(NC(=O)Nc2cccc(C(=O)Nc3cc(C(=O)Nc4ccc(CP(=O)(O)O)cc4CP(=O)(O)O)ccc3C)c2)c1
GI50 [1]: > 100 µM (inactive)
GI50 [2]: > 100 µM (inactive)
GI50 [3]: > 100 µM (inactive)
GI50 [4]: > 100 µM (inactive)
GI50 [5]: > 100 µM (inactive)
GI50 [6]: > 100 µM (inactive)
GI50 [7]: > 100 µM (inactive)
GI50 [8]: > 100 µM (inactive)
GI50 [9]: > 100 µM (inactive)
GI50 [10]: > 100 µM (inactive)
GI50 [11]: > 100 µM (inactive)
GI50 [12]: > 100 µM (inactive)
GI50 [13]: > 100 µM (inactive)
GI50 [14]: > 100 µM (inactive)
GI50 [15]: > 100 µM (inactive)
GI50 [57]: > 100 µM (inactive)
GI50 [16]: > 100 µM (inactive)
GI50 [17]: > 100 µM (inactive)
GI50 [18]: 41.8 µM (inactive)
GI50 [19]: > 100 µM (inactive)
GI50 [20]: > 100 µM (inactive)
GI50 [21]: > 100 µM (inactive)
GI50 [22]: > 100 µM (inactive)
GI50 [23]: > 100 µM (inactive)
GI50 [24]: > 100 µM (inactive)
GI50 [25]: > 100 µM (inactive)
GI50 [26]: > 100 µM (inactive)
GI50 [27]: > 100 µM (inactive)
GI50 [28]: > 100 µM (inactive)
GI50 [29]: > 100 µM (inactive)
GI50 [30]: > 100 µM (inactive)
GI50 [31]: > 100 µM (inactive)
GI50 [32]: > 100 µM (inactive)
GI50 [33]: > 100 µM (inactive)
GI50 [34]: > 100 µM (inactive)
GI50 [35]: > 100 µM (inactive)
GI50 [36]: > 100 µM (inactive)
GI50 [58]: > 100 µM (inactive)
GI50 [37]: > 100 µM (inactive)
GI50 [38]: > 100 µM (inactive)
GI50 [40]: > 100 µM (inactive)
GI50 [41]: > 100 µM (inactive)
GI50 [42]: > 100 µM (inactive)
GI50 [43]: > 100 µM (inactive)
GI50 [45]: > 100 µM (inactive)
GI50 [46]: > 100 µM (inactive)
GI50 [47]: > 100 µM (inactive)
GI50 [48]: > 100 µM (inactive)
GI50 [49]: > 100 µM (inactive)
GI50 [50]: > 100 µM (inactive)
GI50 [51]: > 100 µM (inactive)
GI50 [52]: > 100 µM (inactive)
GI50 [53]: > 100 µM
GI50 [54]: > 100 µM (inactive)
GI50 [55]: > 100 µM (inactive)
GI50 [56]: > 100 µM (inactive)
